Experimental data from US20120252037A1, “STIMULATORY AUTO-ANTIBODIES TO THE PDGF RECEPTOR AS PATHOLOGY MARKER AND THERAPEUTIC TARGET” (priority 2005, published 2012).
Read-outs that look alike come from different tables or passages of the source. Values belong to the compound of their own block, whether it stands above or below them. Peptide text beside a SMILES is read from it. * marks the point of attachment. Cbz = O=C(OCc1ccccc1)*

Key:
Ha-Ras = Ha-Ras / Ki-Ras protein levels in primary fibroblasts (immunoprecipitation, immunoblot, immunofluorescence, FACS); assay type: cell-based, human; conditions: for effect on Ha-Ras induction by PDGF / effect on Ha Ras levels: primary fibroblasts
Method: Ras proteins were immunoprecipitated from cultured fibroblasts with polyclonal anti pan Ras antibody (Santa Cruz Biotechnology, Santa Cruz, Calif.) following recommended procedures from the manufacturer.
Fibroblasts, cultured on Lab-Tek chamber glass slides (Nalge-Nunc, Ill., USA) and starved 48 h before stimulation or addition of inhibitors, were fixed 4% para-formaldheide, permeabilized by 0.1% Triton-X, and stained with a monoclonal antibody against Ha-Ras and then with a tetramethylrhodamine-isothiocyanate (TRITC) conjugated secondary antibody (Molecular Probes, NL). Slides were mounted with Vectarshield (H-100; Vector, Burlingame, Calif.) and examined using a BioRad (Hemel Hempstead, UK) microradiance confocal laser-scanning microscope equipped with argon and helium/neon lasers. Acquired images were analysed using the Laser Sharp Processing BioRad software (version 3.2). All images from different slides condition were acquired in double-blinded fashion.
Cells were grown to semiconfluency in 60 mm culture dishes. After trypsin detachment, 5×10^5 cells were suspended in 1 ml of phosphate buffered saline (PBS) and fixed overnight with 1% formaldehyde at room temperature. Next, cells were permeabilized with 0.1% Triton×100 for 40 min at 4° C., washed 4 times with 2 ml of PBS containing 2% FBS, 0.01% NaN3, 0.1% Triton×100 (buffer A), and incubated for 45 min at 4° C. with 1:50 dilution of monoclonal and polyclonal anti HaRas antibodies (Santa Cruz Biotechnology, Santa Cruz, Calif., USA). The cells were then washed twice with the same buffer and incubated for 45 min at 4° C. with Cy2-conjugated anti-mouse IgG antibodies (Amersham Pharmacia Biotech, Milano, Italia) at 1:50 dilution. Control cells were incubated with Cy2-conjugated anti mouse IgG antibodies alone. After two washes in buffer A, cells were resuspended in PBS and analyzed by flow cytometry using FACScan (BD, Heidelberg, Germany) and WinMDI software.

ERK1/2 = test: P-ERK1/2 immunoblot in primary fibroblasts; assay type: cell-based, human; conditions: for effect on ERK1/2 activated by PDGF: NAC 20 mM 5 h, DPI 20 μM 1 h, FIG. 5E
Method: Cell culture plates were lysed with 0.3 ml of cold RIPA buffer (1×PBS, 1% Nonidet P-40, 0.5% sodium deoxycholate, 0.1% SDS, 2 mM sodium orthovanadate, 2 μg/ml aprotinin, 1 mM PMSF) and processed for immunoblotting as described (8).
Cell culture plates were lysed with 0.3 ml of cold RIPA buffer (1×PBS, 1% Nonidet P-40, 0.5% sodium deoxycholate, 0.1% SDS, 2 mM sodium orthovanadate, 2 μg/ml aprotinin, 1 mM PMSF) and processed as described (14).

normal human fibroblasts = test: ROS (DCF fluorescence) in normal human fibroblasts; assay type: cell-based; conditions: for effect on ROS induction by SSc IgG in normal fibroblasts: FIG. 2A, pre-incubation for 2 hours (AG1478 2 μM, FT-277 20 μM, PD98059 40 μM)
Method: (§1) Fluorimetric determination of intracellular ROS generated by adherent fibroblasts was estimated after loading the cells with 2′,7′-dichlorofluorescein diacetate (DCFH-DA 10 μM, Molecular Probes, PoortGebouw, The Nederlands) for 15 min at 37° C. The DCF fluorescence intensity was measured by a CytoFluor plate reader (PerkinElmer, Wallac, Finland) (excitation wavelength, 485 nm; emission wavelength, 530 nm) (8). Ten measurements were made in each single well from ten distinct points and the values averaged. Each IgG sample was run in duplicate and the average has been recorded. The results are expressed as DCF fluorescence intensity calculated subtracting from the DCF fluorescence intensity of the test IgG the DCF fluorescence intensity of a negative control obtained by cell cultured without IgG. The intra-plate and the inter-plate coefficient of variation was less than 3%. The samples were recorded as positive if the SI was greater than the mean plus three standard deviations of the normal group.
In selected experiments ROS generation was evaluated after the addition of PDGF receptor tyrosine kinase inhibitor (AG 1296; 2 μM for 2 hours), Epidermal growth factor (EGF) receptor tyrosine kinase inhibitor (AG 1478; 2 μM for 2 hours), a chemical inhibitor of ERK 1/2 signalling (PD 98059; 40 μM for 2 hours), and a farnesyl protein transferase inhibitor to block Ras farnesylation (FTI-277; 20 μM for 2 hours). AG 1296, AG 1478, PD 98059 and FTI-277 were obtained from Calbiochem (San Diego, Calif.).
Fluorimetric determination of intracellular ROS generated by fibroblasts was estimated after loading the cells with DCFH-DA (10 μM) for 15 min at 37° C. before assessing DCF fluorescence level (15). Superoxide anion release was estimated using the superoxide dismutase-inhibitable cytochrome c reduction (12). H2O2 release from fibroblasts into the overlying medium was assayed using a modification of the method of Valletta and Berton (1987) (16). Oxidative activity imaging in living, transfected cells was evaluated as described (12, 17).

SSc fibroblasts = test: Oxidative stress-induced apoptosis in scleroderma fibroblasts; assay type: cell-based, human; conditions: H2O2, pre-treatment, FIG. 8C
Method: Normal and scleroderma fibroblasts were grown to 80-90% confluence and treated for 2 h with different concentrations of H2O2. When needed, cells were preincubated 30 min with PD 98059 (40 μmol/L).
(§2) Six hours after the removal of the stimulus, apoptosis was detected by FACS analysis using annexin V-Cy3 (Clontech, Palo Alto Calif.). Statistical analysis

PDGFR = target: T1, PDGFR (Homo sapiens, UniProt P09619); test: Tyrosine phosphorylation of the PDGFR in normal fibroblasts; assay type: cell-based; conditions: FIG. 2D and data not shown
T1 construct: endogenous in cells; host or cells: normal human fibroblasts
Method: Panel D. Normal human fibroblasts were stimulated with SSc IgG (200 μg/ml for 15 min), PDGF (15 ng/ml for 15 min) or grown in FCS 0.2%. Cell lysates were immunoprecipitated with a polyclonal antibody against PDGFR (subunit β) and the immunoblots were developed with a specific antibody against phosphorylated tyrosine.

PDGF receptor = PDGF receptor level in primary fibroblast extracts (immunoblot); assay type: cell-based, human; conditions: independently on ERK1/2 activation; FIG. 5D
Method: D. PDGF induction of Ha-Ras is mediated by ERK1/2. Fibroblasts, incubated in 0.2% FCS for 48 h, were treated with the MEK inhibitors, PD98059 (40 μM) 2 h, before the treatment with PDGF (15 ng/ml).

[1] = test system: Umbilical vein endothelial cells; test: Apoptosis of umbilical vein endothelial cells (annexin V FACS); assay type: cell-based; conditions: overnight; SSc IgG 200 μg/ml, PDGF 15 ng/ml; FIG. 3C
Method: Endothelial cells will be isolated from umbilical cord. Cells were stimulated with SSc IgG (200 μg/ml), normal IgG (200 μg/ml) and PDGF (15 ng/ml) for 12 hours in the presence and in the absence of inhibitors of PDGFR and EGFR tyrosine kinase activity.
as §2

[2] = target: T2, PDGFR α subunit expressed by Fα cells (Homo sapiens, UniProt P16234); test: Bio-assay for anti PDGFR autoantibodies: ROS production (DCF fluorescence) in Fα cells; assay type: cell-based, mouse; conditions: pre-incubation 2 μM for 2 hours
T2 construct: expressed in transfected cells; host or cells: mouse embryo fibroblasts from PDGF receptor knock-out embryos (F-/-) infected with PDGFR α (Fα cells)
Method: Patients and control serum samples were tested for the presence of PDGFR activating autoantibodies in a functional bioassay based on the production of ROS by mouse embryo fibroblasts infected with PDGFR α and/or β subunits and exposed in vitro to immunopurified IgG. Control cells were F−/− cells devoid of PDGFR. In brief, cells were plated in duplicate at a density of 30,000 cells in 1.83-cm^2 wells and incubated for 24 hours at 37° C. in 0.2 percent fetal calf serum. The cells were then washed with phosphate-buffered saline and incubated with a pre-determined amount of control or patient IgG for 15 minutes at 37° C. before ROS production determination.
as §1, with “Ten measurements were made in each single well from ten distinct points and the values averaged.” left out, “The intra-plate and the inter-plate coefficient of variation was less than 3%. The samples were recorded as positive if the SI was greater than the mean plus three standard deviations of the normal group.” left out

[3] = 90 min in the presence of genistein, data not shown

T2 sequence (P16234 24-1089): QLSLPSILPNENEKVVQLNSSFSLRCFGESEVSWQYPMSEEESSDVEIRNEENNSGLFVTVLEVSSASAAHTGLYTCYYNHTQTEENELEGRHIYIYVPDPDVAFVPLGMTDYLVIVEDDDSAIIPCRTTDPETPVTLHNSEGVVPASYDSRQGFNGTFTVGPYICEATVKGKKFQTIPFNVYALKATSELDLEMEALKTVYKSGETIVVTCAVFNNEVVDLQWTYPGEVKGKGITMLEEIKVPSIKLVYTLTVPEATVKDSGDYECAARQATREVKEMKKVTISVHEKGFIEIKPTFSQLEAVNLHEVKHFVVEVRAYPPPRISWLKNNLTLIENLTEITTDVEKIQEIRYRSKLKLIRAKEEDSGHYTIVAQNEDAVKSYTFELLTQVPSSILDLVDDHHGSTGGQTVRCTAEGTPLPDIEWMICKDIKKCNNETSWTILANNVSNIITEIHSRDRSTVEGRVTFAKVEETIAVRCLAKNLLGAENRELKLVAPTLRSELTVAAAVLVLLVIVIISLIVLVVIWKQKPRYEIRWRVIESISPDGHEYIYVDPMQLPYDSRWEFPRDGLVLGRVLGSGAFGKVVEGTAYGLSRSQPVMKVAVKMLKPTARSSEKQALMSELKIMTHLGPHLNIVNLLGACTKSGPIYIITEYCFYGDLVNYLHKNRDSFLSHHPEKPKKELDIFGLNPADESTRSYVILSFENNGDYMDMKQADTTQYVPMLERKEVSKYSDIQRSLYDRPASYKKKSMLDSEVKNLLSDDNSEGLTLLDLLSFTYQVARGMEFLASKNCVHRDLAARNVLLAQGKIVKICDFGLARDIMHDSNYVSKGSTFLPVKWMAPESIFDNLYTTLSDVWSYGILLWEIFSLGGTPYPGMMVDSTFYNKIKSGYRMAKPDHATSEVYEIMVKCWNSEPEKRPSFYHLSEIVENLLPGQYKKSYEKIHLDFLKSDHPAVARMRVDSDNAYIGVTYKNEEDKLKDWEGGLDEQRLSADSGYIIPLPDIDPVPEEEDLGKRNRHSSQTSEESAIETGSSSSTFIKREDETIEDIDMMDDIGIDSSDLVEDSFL
T1 sequence (P09619 33-1106): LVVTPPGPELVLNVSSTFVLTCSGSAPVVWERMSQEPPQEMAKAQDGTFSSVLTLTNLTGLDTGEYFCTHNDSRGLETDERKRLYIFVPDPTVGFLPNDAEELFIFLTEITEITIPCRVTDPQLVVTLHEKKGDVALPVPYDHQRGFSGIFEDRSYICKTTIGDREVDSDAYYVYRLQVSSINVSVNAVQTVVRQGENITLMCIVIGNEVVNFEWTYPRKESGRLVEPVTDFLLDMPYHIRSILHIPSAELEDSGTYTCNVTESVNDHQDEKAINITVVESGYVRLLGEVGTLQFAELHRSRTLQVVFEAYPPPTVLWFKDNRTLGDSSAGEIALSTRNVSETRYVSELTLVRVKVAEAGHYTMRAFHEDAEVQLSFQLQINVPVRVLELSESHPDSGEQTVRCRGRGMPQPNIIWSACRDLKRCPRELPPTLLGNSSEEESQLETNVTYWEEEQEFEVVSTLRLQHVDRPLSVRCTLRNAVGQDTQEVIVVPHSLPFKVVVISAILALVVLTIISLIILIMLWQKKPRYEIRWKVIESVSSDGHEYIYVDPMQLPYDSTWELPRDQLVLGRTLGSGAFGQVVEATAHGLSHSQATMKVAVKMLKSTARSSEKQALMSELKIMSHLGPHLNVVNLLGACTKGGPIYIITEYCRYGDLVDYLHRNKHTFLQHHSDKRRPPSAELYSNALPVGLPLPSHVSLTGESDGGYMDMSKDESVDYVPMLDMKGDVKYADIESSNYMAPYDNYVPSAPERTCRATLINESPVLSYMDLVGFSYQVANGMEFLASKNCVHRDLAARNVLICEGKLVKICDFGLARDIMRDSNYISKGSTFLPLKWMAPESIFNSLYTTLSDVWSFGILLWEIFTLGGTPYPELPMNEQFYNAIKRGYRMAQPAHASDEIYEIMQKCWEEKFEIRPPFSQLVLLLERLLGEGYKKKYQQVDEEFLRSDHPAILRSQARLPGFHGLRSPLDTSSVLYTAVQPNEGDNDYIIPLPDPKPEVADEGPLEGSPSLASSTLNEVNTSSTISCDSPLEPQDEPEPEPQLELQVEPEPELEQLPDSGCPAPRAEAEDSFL

effect on Ha-Ras induction by PDGF (Ha-Ras; PDGF 15 ng/ml): did not abolish
Compound: cyclodextrin

Compound: c1ccc2c(c1)[I+]c1ccccc1-2 [DPI, diphenylene iodonium]
effect on Ha-Ras induction by PDGF (Ha-Ras; PDGF 15 ng/ml): significantly inhibited
effect on ERK1/2 activated by PDGF (ERK1/2): sensitive

Compound: COC(=O)[C@H](CCSC)NC(=O)c1ccc(NC[C@@H](N)CS)cc1-c1ccccc1 [FTI-277]
effect on ROS induction by SSc IgG in normal fibroblasts (normal human fibroblasts): prevented

Compound: C[C@@H]1C[C@@H]([C@H](O)CC2CC(=O)NC(=O)C2)C(=O)[C@@H](C)C1 [cycloheximide]
effect on Ha-Ras induction by PDGF (Ha-Ras; PDGF 15 ng/ml): did not prevent

effect on Ha-Ras induced by SSc IgG (Ha-Ras; normal human fibroblasts, FIG. 2B, inhibitor for 2 h): slight inhibition
Compound: COc1cc2ncnc(Nc3cccc(Cl)c3)c2cc1OC [AG1478]
effect on ROS induction by SSc IgG in normal fibroblasts (normal human fibroblasts): prevented

effect on induction of Ha-Ras by H2O2 (Ha-Ras; PD 98059 2 h, U0126 15 min incubation, FIGS. 6A, 6B): abolished
effect on Ha-Ras induction by PDGF (Ha-Ras; PDGF 15 ng/ml): inhibited
Compound: COc1cccc(-c2cc(=O)c3ccccc3o2)c1N [PD98059]
effect on ROS induction by SSc IgG in normal fibroblasts (normal human fibroblasts): prevented
effect on oxidative stress-induced apoptosis (SSc fibroblasts): inhibited

Compound: CC(C)C[C@@H](C=O)NC(=O)[C@H](CC(C)C)NC(=O)[C@H](CC(C)C)NC(=O)OCc1ccccc1 [MG132] (Cbz-Leu-Leu-Leu-aldehyde)
effect on Ha Ras when administered with PDGF or H2O2 (Ha-Ras; FIG. 6E): not additive
effect on Ha Ras levels (Ha-Ras; FIG. 6E): induced

effect on Ha-Ras induction by PDGF (Ha-Ras; PDGF 15 ng/ml): significantly inhibited
Compound: CC(=O)N[C@@H](CS)C(=O)O [NAC, N-acetyl-L-cysteine]
effect on ERK1/2 activated by PDGF (ERK1/2): sensitive

Compound: CC[C@@]1([C@@H]2O[C@@H]([C@H]3O[C@@](O)(CO)[C@H](C)C[C@@H]3C)C[C@@H]2C)CC[C@H]([C@]2(C)CC[C@]3(C[C@H](O)[C@@H](C)[C@@H]([C@@H](C)[C@@H](OC)[C@H](C)C(=O)O)O3)O2)O1 [monensin]
effect on Ha Ras levels (Ha-Ras; FIG. 6E): no effect

effect on Ha-Ras induced by H2O2, longer incubation (Ha-Ras; [3]): inhibited
effect on Ha-Ras induction by PDGF (Ha-Ras; PDGF 15 ng/ml): inhibited
Compound: O=c1c(-c2ccc(O)cc2)coc2cc(O)cc(O)c12 [genistein]
effect on ERK1/2 induced by H2O2, longer incubation (ERK1/2; [3]): inhibited

half-life of Ha-Ras protein induced by PDGF (Ha-Ras; estimated from several experiments): approximately 40 min
Ki-Ras decay time (Ha-Ras; of PDGF stimulation, FIG. 4A): 3 h
time after stimulation at which Ha-Ras decreased to the initial levels (Ha-Ras; primary human fibroblasts, growth factor still present): 120 min
PDGF stimulation time sufficient to induce Ha-Ras protein (Ha-Ras; quiescent primary human fibroblasts, PDGF 15 ng/ml): 15 min
duration of PDGFR tyrosine phosphorylation (PDGFR): 15 min
PDGF receptor level (PDGF receptor): down-regulated
Compound: PDGF
duration of induced ROS (return to baseline) (normal human fibroblasts; discussion, cells not given): 15 to 30 min
induction of endothelial cell apoptosis [1]: unable to induce apoptosis

effect on ROS induced in Fα cells incubated with SSc IgG [2]: inhibited
Compound: COc1cc2ncc(-c3ccccc3)nc2cc1OC [AG 1296]

Compound: N#CC(=C(/N)Sc1ccccc1N)/C(C#N)=C(\N)Sc1ccccc1N [U0126]
effect on induction of Ha-Ras by H2O2 (Ha-Ras): abolished

Compound: OO [H2O2]
Ha Ras induction in the presence of genistein (Ha-Ras; FIG. 6D): powerful inducer
